Patent US11123337B2, “4-methylsulfonyl-substituted piperidine urea compounds” (MYOKARDIA, INC., priority 2015, dated 2021)

Target: bovine cardiac myosin (Bos taurus, UniProt Q9BE39)
Test: Myosin activation assay (PK/LDH-coupled ATPase, bovine cardiac myofibrils)
Type: biochemical
Settings: AC20 = concentration at which total response is increased by twenty percent
Method in brief: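 Values are the concentrations raising the ATPase rate by 20% or 50% over DMSO, from 10-point dose responses fitted with four parameters. Rate is NADH loss at 340 nm via PK/LDH coupling, read 15 min at room temperature, in pH 6.8 PIPES with 50 μM ATP. Bovine cardiac myofibrils were held at pCa ~6 or pCa 10.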

Sequence of bovine cardiac myosin (Q9BE39 whole entry): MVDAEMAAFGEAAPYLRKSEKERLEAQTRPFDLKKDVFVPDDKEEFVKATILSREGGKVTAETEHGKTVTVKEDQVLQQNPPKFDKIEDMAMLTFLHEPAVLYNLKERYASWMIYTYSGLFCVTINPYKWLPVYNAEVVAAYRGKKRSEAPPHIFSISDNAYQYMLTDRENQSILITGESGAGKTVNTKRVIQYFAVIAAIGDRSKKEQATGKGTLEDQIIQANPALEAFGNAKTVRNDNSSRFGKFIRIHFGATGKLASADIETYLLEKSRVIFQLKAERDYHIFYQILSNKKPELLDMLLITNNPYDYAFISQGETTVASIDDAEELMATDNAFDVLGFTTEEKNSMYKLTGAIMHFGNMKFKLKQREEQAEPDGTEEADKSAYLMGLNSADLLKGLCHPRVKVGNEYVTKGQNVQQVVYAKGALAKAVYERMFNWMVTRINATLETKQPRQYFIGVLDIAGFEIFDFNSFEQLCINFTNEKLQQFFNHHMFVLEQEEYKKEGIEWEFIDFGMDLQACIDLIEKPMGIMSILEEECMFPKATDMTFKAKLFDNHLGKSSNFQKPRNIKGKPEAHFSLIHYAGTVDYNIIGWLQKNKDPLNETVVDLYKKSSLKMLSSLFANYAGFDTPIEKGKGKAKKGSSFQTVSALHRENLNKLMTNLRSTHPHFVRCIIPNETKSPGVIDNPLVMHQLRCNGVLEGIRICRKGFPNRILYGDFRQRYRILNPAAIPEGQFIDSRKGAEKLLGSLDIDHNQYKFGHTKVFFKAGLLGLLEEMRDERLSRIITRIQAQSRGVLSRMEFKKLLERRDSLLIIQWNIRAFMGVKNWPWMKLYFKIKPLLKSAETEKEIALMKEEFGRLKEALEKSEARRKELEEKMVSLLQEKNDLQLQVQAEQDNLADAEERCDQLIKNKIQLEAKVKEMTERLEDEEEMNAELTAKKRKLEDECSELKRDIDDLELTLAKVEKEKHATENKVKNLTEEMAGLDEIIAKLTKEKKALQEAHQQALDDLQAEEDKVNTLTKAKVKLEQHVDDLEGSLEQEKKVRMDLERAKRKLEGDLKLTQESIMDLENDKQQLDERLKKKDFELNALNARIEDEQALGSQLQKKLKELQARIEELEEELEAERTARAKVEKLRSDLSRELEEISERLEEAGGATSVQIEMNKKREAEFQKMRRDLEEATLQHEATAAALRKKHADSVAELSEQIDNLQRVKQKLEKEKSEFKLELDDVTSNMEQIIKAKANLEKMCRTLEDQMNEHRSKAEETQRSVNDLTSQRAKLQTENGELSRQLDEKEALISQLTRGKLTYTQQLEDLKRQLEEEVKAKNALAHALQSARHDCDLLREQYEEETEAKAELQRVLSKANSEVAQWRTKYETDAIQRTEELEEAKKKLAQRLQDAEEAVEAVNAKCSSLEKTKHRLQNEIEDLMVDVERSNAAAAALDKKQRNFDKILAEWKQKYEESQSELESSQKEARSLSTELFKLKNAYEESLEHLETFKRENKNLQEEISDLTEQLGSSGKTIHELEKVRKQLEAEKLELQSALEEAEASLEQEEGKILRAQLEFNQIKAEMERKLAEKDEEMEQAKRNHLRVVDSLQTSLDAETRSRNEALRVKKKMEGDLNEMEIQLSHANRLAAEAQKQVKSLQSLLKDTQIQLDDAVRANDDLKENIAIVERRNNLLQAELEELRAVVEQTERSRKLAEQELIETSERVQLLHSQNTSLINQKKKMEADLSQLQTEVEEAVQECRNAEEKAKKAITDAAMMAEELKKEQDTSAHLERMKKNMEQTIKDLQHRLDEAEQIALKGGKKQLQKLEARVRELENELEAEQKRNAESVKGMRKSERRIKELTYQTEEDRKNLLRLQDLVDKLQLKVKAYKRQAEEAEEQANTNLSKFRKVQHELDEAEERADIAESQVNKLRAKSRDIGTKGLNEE
Sequence of bovine cardiac myosin (P85100 whole entry partner): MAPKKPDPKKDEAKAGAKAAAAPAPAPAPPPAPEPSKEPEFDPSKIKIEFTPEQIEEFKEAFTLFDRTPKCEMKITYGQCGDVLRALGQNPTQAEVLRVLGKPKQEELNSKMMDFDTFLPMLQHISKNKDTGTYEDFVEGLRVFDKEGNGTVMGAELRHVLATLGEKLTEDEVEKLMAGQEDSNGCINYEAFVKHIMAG
Sequence of bovine cardiac myosin (Q3SZE5 whole entry partner): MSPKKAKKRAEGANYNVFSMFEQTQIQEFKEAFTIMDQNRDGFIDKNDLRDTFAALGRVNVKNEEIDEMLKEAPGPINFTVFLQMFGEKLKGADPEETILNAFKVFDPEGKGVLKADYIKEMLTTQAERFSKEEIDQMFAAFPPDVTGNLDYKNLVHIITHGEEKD

With `CC(C)(C1CCN(C(=O)Nc2ccc(Cl)nc2)CC1)S(=O)(=O)c1cccc(F)c1` [Compound 159, N-(6-chloropyridin-3-yl)-4-(2-((3-fluorophenyl)sulfonyl)propan-2-yl)piperidine-1-carboxamide] as the compound, how does the “Myosin Activation (AC20)” value read?
The value was “++ (++ represents myosin activation value AC20 from 2 μM-5 μM)”.

How did the “Myosin Activation (AC20)” value turn out when `CC(C)(C1CCN(C(=O)Nc2ccnc(Cl)c2)CC1)S(=O)(=O)c1cccc(F)c1` [Compound 160, N-(2-chloropyridin-4-yl)-4-(2-((3-fluorophenyl)sulfonyl)propan-2-yl)piperidine-1-carboxamide] was run?
The value was “++ (++ represents myosin activation value AC20 from 2 μM-5 μM)”.

How did the “Myosin Activation (AC20)” value turn out when `COc1ccc(NC(=O)N2CCC(C(C)(C)S(=O)(=O)c3cccc(F)c3)CC2)cn1` [Compound 161, 4-(2-((3-fluorophenyl)sulfonyl)propan-2-yl)-N-(6-methoxypyridin-3-yl)piperidine-1-carboxamide] was run?
Its value is “+ (+ represents myosin activation value AC20 > 5 μM)”.

`Cc1ccc(NC(=O)N2CCC(C(C)(C)S(=O)(=O)c3cccc(F)c3)CC2)cn1` [Compound 162, 4-(2-((3-fluorophenyl)sulfonyl)propan-2-yl)-N-(6-methylpyridin-3-yl)piperidine-1-carboxamide] was tested. Which “Myosin Activation (AC20)” value did it give?
The value was “+ (+ represents myosin activation value AC20 > 5 μM)”.

With `CC(C)(C1(O)CCN(C(=O)Nc2ccnnc2)CC1)S(=O)(=O)c1cccc(F)c1` [Compound 163, 4-(2-((3-fluorophenyl)sulfonyl)propan-2-yl)-4-hydroxy-N-(pyridazin-4-yl)piperidine-1-carboxamide] as the compound, how does the “Myosin Activation (AC20)” value read?
The value was “+ (+ represents myosin activation value AC20 > 5 μM)”.

For `N#Cc1ccc(S(=O)(=O)C2(C3CCN(C(=O)Nc4ccnnc4)CC3)CCC2)cc1` [Compound 164, 4-(1-((4-cyanophenyl)sulfonyl)cyclobutyl)-N-(pyridazin-4-yl)piperidine-1-carboxamide], which “Myosin Activation (AC20)” value is on record?
The value was “+++ (+++ represents myosin activation value AC20 < 2 μM)”.

For `O=C(Nc1ccnnc1)N1CCC(C2(S(=O)(=O)c3ccc(C(F)(F)F)cc3)CCC2)CC1` [Compound 165, N-(pyridazin-4-yl)-4-(1-((4-(trifluoromethyl)phenyl)sulfonyl)cyclobutyl)piperidine-1-carboxamide], which “Myosin Activation (AC20)” value is on record?
The value was “+++ (+++ represents myosin activation value AC20 < 2 μM)”.

For `O=C(Nc1ccnnc1)N1CCC(F)(C2(S(=O)(=O)c3cccc(F)c3)CCC2)CC1` [Compound 166, 4-fluoro-4-(1-((3-fluorophenyl)sulfonyl)cyclobutyl)-N-(pyridazin-4-yl)piperidine-1-carboxamide], which “Myosin Activation (AC20)” value is on record?
Its value is “++ (++ represents myosin activation value AC20 from 2 μM-5 μM)”.

With `O=C(Nc1ccnnc1)N1CCC(C2(S(=O)(=O)c3cc(F)cc(F)c3)CCC2)CC1` [Compound 167, 4-(1-((3,5-difluorophenyl)sulfonyl)cyclobutyl)-N-(pyridazin-4-yl)piperidine-1-carboxamide] as the compound, how does the “Myosin Activation (AC20)” value read?
Its value is “+++ (+++ represents myosin activation value AC20 < 2 μM)”.

`Cn1cc(S(=O)(=O)C(C)(C)C2CCN(C(=O)Nc3ccnnc3)CC2)c(C(F)F)n1` [Compound 168, 4-(2-((3-(difluoromethyl)-1-methyl-1H-pyrazol-4-yl)sulfonyl)propan-2-yl)-N-(pyridazin-4-yl)piperidine-1-carboxamide] was tested. Which “Myosin Activation (AC20)” value did it give?
Its value is “+++ (+++ represents myosin activation value AC20 < 2 μM)”.

How did the “Myosin Activation (AC20)” value turn out when `CC(C)(C1CCN(C(=O)Nc2ccnnc2)CC1)S(=O)(=O)c1cc(F)cc(F)c1` [Compound 169, 4-(2-((3,5-difluorophenyl)sulfonyl)propan-2-yl)-N-(pyridazin-4-yl)piperidine-1-carboxamide] was run?
Its value is “+++ (+++ represents myosin activation value AC20 < 2 μM)”.

For `Cn1cc(S(=O)(=O)C2(C3CCN(C(=O)Nc4ccnnc4)CC3)CCC2)c(C(F)F)n1` [Compound 170, 4-(1-((3-(difluoromethyl)-1-methyl-1H-pyrazol-4-yl)sulfonyl)cyclobutyl)-N-(pyridazin-4-yl)piperidine-1-carboxamide], which “Myosin Activation (AC20)” value is on record?
The value was “+++ (+++ represents myosin activation value AC20 < 2 μM)”.

With `CC(C)(C1CCN(C(=O)Nc2ccnnc2)CC1)S(=O)(=O)c1ccc(C(F)(F)F)nc1` [Compound 171, N-(pyridazin-4-yl)-4-(2-((6-(trifluoromethyl)pyridin-3-yl)sulfonyl)propan-2-yl)piperidine-1-carboxamide] as the compound, how does the “Myosin Activation (AC20)” value read?
Its value is “++ (++ represents myosin activation value AC20 from 2 μM-5 μM)”.

With `Cn1cnc(S(=O)(=O)C(C)(C)C2CCN(C(=O)Nc3ccnnc3)CC2)c1` [Compound 172, 4-(2-((1-methyl-1H-imidazol-4-yl)sulfonyl)propan-2-yl)-N-(pyridazin-4-yl)piperidine-1-carboxamide] as the compound, how does the “Myosin Activation (AC20)” value read?
The value was “+ (+ represents myosin activation value AC20 > 5 μM)”.

Which “Myosin Activation (AC20)” value does the source give for `Cn1cnc(S(=O)(=O)C2(C3CCN(C(=O)Nc4ccnnc4)CC3)CCC2)c1` [Compound 173, 4-(1-((1-methyl-1H-imidazol-4-yl)sulfonyl)cyclobutyl)-N-(pyridazin-4-yl)piperidine-1-carboxamide] here?
The value was “+ (+ represents myosin activation value AC20 > 5 μM)”.

Which “Myosin Activation (AC20)” value does the source give for `Cn1nccc1S(=O)(=O)C1(C2CCN(C(=O)Nc3ccnnc3)CC2)CCC1` [Compound 174, 4-(1-((1-methyl-1H-pyrazol-5-yl)sulfonyl)cyclobutyl)-N-(pyridazin-4-yl)piperidine-1-carboxamide] here?
Its value is “+++ (+++ represents myosin activation value AC20 < 2 μM)”.

`Cn1nccc1S(=O)(=O)C1(C2CCN(C(=O)Nc3cnns3)CC2)CCC1` [Compound 175, 4-(1-((1-methyl-1H-pyrazol-5-yl)sulfonyl)cyclobutyl)-N-(1,2,3-thiadiazol-5-yl)piperidine-1-carboxamide] was tested. Which “Myosin Activation (AC20)” value did it give?
The value was “+++ (+++ represents myosin activation value AC20 < 2 μM)”.

Which “Myosin Activation (AC20)” value does the source give for `CC(C)(C1CCN(C(=O)Nc2ccncc2Cl)CC1)S(=O)(=O)c1cccc(F)c1` [Compound 176, N-(3-chloropyridin-4-yl)-4-(2-((3-fluorophenyl)sulfonyl)propan-2-yl)piperidine-1-carboxamide] here?
The value was “+ (+ represents myosin activation value AC20 > 5 μM)”.

`CC(C)(C1CCN(C(=O)Nc2ccncc2F)CC1)S(=O)(=O)c1cccc(F)c1` [Compound 177, 4-(2-((3-fluorophenyl)sulfonyl)propan-2-yl)-N-(3-fluoropyridin-4-yl)piperidine-1-carboxamide] was tested. Which “Myosin Activation (AC20)” value did it give?
Its value is “+ (+ represents myosin activation value AC20 > 5 μM)”.

With `CC(F)(F)C(C)(C1CCN(C(=O)Nc2ccnnc2)CC1)S(=O)(=O)c1cccc(F)c1` (stereo not drawn) [Compound 178, 4-(3,3-difluoro-2-((3-fluorophenyl)sulfonyl)butan-2-yl)-N-(pyridazin-4-yl)piperidine-1-carboxamide] as the compound, how does the “Myosin Activation (AC20)” value read?
The value was “+++ (+++ represents myosin activation value AC20 < 2 μM)”.

For `CC(C)(C1CCN(C(=O)Nc2cnns2)CC1)S(=O)(=O)c1ccc(C#N)cc1` [Compound 179, 4-(2-((4-cyanophenyl)sulfonyl)propan-2-yl)-N-(1,2,3-thiadiazol-5-yl)piperidine-1-carboxamide], which “Myosin Activation (AC20)” value is on record?
Its value is “+++ (+++ represents myosin activation value AC20 < 2 μM)”.

`CC(C)(C1CCN(C(=O)Nc2ccnnc2)CC1)S(=O)(=O)c1ccc(C#N)cc1` [Compound 180, 4-(2-((4-cyanophenyl)sulfonyl)propan-2-yl)-N-(pyridazin-4-yl)piperidine-1-carboxamide] was tested. Which “Myosin Activation (AC20)” value did it give?
The value was “++ (++ represents myosin activation value AC20 from 2 μM-5 μM)”.

Which “Myosin Activation (AC20)” value does the source give for `CC(C)(C1CCN(C(=O)Nc2ccnnc2)CC1)S(=O)(=O)c1ccc(C(F)(F)F)cc1` [Compound 181, N-(pyridazin-4-yl)-4-(2-((4-(trifluoromethyl)phenyl)sulfonyl)propan-2-yl)piperidine-1-carboxamide] here?
Its value is “++ (++ represents myosin activation value AC20 from 2 μM-5 μM)”.

`CC(C)(C1CCN(C(=O)Nc2cnns2)CC1)S(=O)(=O)c1ccc(C(F)(F)F)cc1` [Compound 182, N-(1,2,3-thiadiazol-5-yl)-4-(2-((4-(trifluoromethyl)phenyl)sulfonyl)propan-2-yl)piperidine-1-carboxamide] was tested. Which “Myosin Activation (AC20)” value did it give?
The value was “+++ (+++ represents myosin activation value AC20 < 2 μM)”.

`CCn1nccc1S(=O)(=O)C(C)(C)C1CCN(C(=O)Nc2cnns2)CC1` [Compound 183, 4-(2-((1-ethyl-1H-pyrazol-5-yl)sulfonyl)propan-2-yl)-N-(1,2,3-thiadiazol-5-yl)piperidine-1-carboxamide] was tested. Which “Myosin Activation (AC20)” value did it give?
The value was “++ (++ represents myosin activation value AC20 from 2 μM-5 μM)”.

How did the “Myosin Activation (AC20)” value turn out when `CCn1nccc1S(=O)(=O)C(C)(C)C1CCN(C(=O)Nc2ccncc2)CC1` [Compound 184, 4-(2-((1-ethyl-1H-pyrazol-5-yl)sulfonyl)propan-2-yl)-N-(pyridin-4-yl)piperidine-1-carboxamide] was run?
The value was “++ (++ represents myosin activation value AC20 from 2 μM-5 μM)”.

`CCn1nccc1S(=O)(=O)C(C)(C)C1CCN(C(=O)Nc2ccnnc2)CC1` [Compound 185, 4-(2-((1-ethyl-1H-pyrazol-5-yl)sulfonyl)propan-2-yl)-N-(pyridazin-4-yl)piperidine-1-carboxamide] was tested. Which “Myosin Activation (AC20)” value did it give?
The value was “+ (+ represents myosin activation value AC20 > 5 μM)”.

`Cc1cc(S(=O)(=O)C(C)(C)C2CCN(C(=O)Nc3ccncc3)CC2)n(C)n1` [Compound 186, 4-(2-((1,3-dimethyl-1H-pyrazol-5-yl)sulfonyl)propan-2-yl)-N-(pyridin-4-yl)piperidine-1-carboxamide] was tested. Which “Myosin Activation (AC20)” value did it give?
The value was “+++ (+++ represents myosin activation value AC20 < 2 μM)”.

`Cc1cc(S(=O)(=O)C(C)(C)C2CCN(C(=O)Nc3ccnnc3)CC2)n(C)n1` [Compound 187, 4-(2-((1,3-dimethyl-1H-pyrazol-5-yl)sulfonyl)propan-2-yl)-N-(pyridazin-4-yl)piperidine-1-carboxamide] was tested. Which “Myosin Activation (AC20)” value did it give?
The value was “+++ (+++ represents myosin activation value AC20 < 2 μM)”.

`Cc1cc(S(=O)(=O)C(C)(C)C2CCN(C(=O)Nc3cnns3)CC2)n(C)n1` [Compound 188, 4-(2-((1,3-dimethyl-1H-pyrazol-5-yl)sulfonyl)propan-2-yl)-N-(1,2,3-thiadiazol-5-yl)piperidine-1-carboxamide] was tested. Which “Myosin Activation (AC20)” value did it give?
The value was “+++ (+++ represents myosin activation value AC20 < 2 μM)”.
